US5880146A, “Inhibition of IL-12-induced IFN-γ synthesis by specific bis-phenol compounds as a method of immune modulation” (Fuji ImmunoPharmaceuticals Corporation, priority 1995, dated 1999)

Assays:
[1] = Cell viability (MTS) after treatment with bis-compound; assay type: cell-based; conditions: human, pha-activated pbmc, 5 μg/ml
Description: Human peripheral blood monocytes (PBMC) were obtained from commercial sources as a leukophoresis from a healthy volunteer and were purified by centrifugation on a Ficoll-Hypaque (Pharmacia) gradient (1700 rpm for 20 min). The "buffy" coat containing the PBMC was diluted with serum-free culture medium (SF-RPMI) to a volume of 50 ml and collected by centrifugation at 1500 rpm for 5 min. Cells were resuspended in cell culture medium containing 10% fetal bovine serum (RPMI-10) and phytohemaglutinin (PHA - 10 μg/ml) at a density of 5×10^6 cells/ml and were cultured for 3 days at 37° C. in a humidified CO2 incubator. The PHA-activated cells were collected by centrifugation, washed three times with an equal volume of SF-RPMI and resuspended in fresh RPMI-10 (1×10^6 cells /ml). Aliquots (100 μl) were dispensed into the wells of multiple 96-well plates to give a final cell number of 10^5 per well. Test compounds, dissolved in dimethyl sulfoxide (DMSO) at 1 mg/ml, were first diluted in culture medium to an intermediate concentration of 20 μg/ml and then were added (50 μwell) to a specific well of the plate for each compound. Stimulation medium (50 μl/well) containing 10% serum, IL-2 and IL-12 was added to final concentrations of 25 U/ml and 0.5 ng/ml, respectively. Control wells receive no IL-2 or IL-12 (negative control) or received both interleukins but no test compound (positive control). The plates were incubated for 48 hr at 37° C. in a CO2 incubator at which time aliquots (20 μl) were removed for analysis of IFN-γ concentration by ELISA. A quantitative ELISA was developed by coating 96-well plates with an mouse monoclonal antibody against human IFN-γ, 1 μg/ml in phosphate buffered saline (PBS) (Pestka Biological Laboratories), overnight at 4° C. Unbound antibody was washed off by washing three times with PBS. Non-specific antibody binding was blocked with a solution of 1% bovine serum albumin (BSA) and 1% goat serum in PBS (150 μl/well) which was incubated for 2 hr at 37° C. After washing the blocked plates four times with PBS, test samples and dilutions of the IFN-γ standard are added in a final volume of 100 μl/well. Following an overnight incubation at 4° C., the plates are washed four times with PBS, and a polyclonal rabbit antiserum against human IFN-γ (1/10000 dilution--Petska Biological Laboratories) is added. After an additional incubation for 1 hr at 37° C. and four washes with PBS, a polyclonal donkey anti-rabbit detecting antibody, conjugated to horseradish peroxidase (1/700 dilution--Petska Biological Laboratories) is added for 1 hr at 37° C. The plates are then washed four times with PBS and 100 μl of K-blue substrate E(ILISA Technologies, Neogen Corp.) is added until the color in the wells containing the standard curve is sufficiently developed, at which time 100 μl of "Red-stop" solution (ELISA Technologies) is added. The absorbance of the solution within each well of the plate is then read at 650 nm using an ELISA plate reader (Dynatech MR7000). The amount of IFN-γ is calculated by comparing the optical density of the test sample with a standard curve derived from the dilutions of the control IFN-y. […] MTS is a chemical chromophore that is metabolized in the mitochondria of viable cells to produce a color which increases in intensity in proportion to the numbers of viable cells. The absorbance of the cell culture can be compared to control cultures in order to determine the percent viability.

[2] = Toxicity of bis-compounds after single systemic dose; assay type: in vivo; conditions: mouse, in vivo, iv, 20% DMSO, 16% cremaphor, single dose
mice = experiment: as above; assay type: in vivo; conditions: 20% DMSO, 16% cremaphor

Structure (SMILES) | viability [1] [%] | LD50 ([2]; conc. sol. 10 mg/ml) [mg/kg] | LD50 ([2]; conc. sol. 15 mg/ml) [mg/kg] | Results (Dead/Alive) (mice; 100 mg/kg IV, 10 mg/ml) | Results (Dead/Alive) (mice; 150 mg/kg IV, 10 mg/ml) | Results (Dead/Alive) (mice; 150 mg/kg IV, 15 mg/ml) | Results (Dead/Alive) (mice; 200 mg/kg IV, 15 mg/ml)
CCCCCCCC(c1cc(C)cc(C)c1O)c1cc(C)cc(C)c1O [Compound 51852] | 105 |  |  |  |  |  | 
Cc1cc(C)c(O)c(C(CC(C)CC(C)(C)C)c2cc(C)cc(C)c2O)c1 (centres unmarked) [Compound 51853, bis-1,1-[2-hydroxy-3,5-dimethylphenyl]-3,5,5-dimethyl hexan] | 104 | 100 to 150 | > 200 | Alive | Dead | Alive | Alive
